Several values for one entry are separate records, joined by “and”; a condition that tells them apart may be missing. Equal entries are not always repeated. Entries after “also recorded” stand apart in the source; their conditions may differ.
Assays:
[1] = cited from earlier work
[2] = system: Bacillus subtilis; conditions: as low as; cited from earlier work
[3] = oral, rats; cited from earlier work
[4] = system: Pseudomonas fluorescens NND; test: inhibition of growth of Pseudomonas fluorescens NND; format: cell-based; conditions: concentrations tested; P. fluorescens NND; listed as hydroxybenzindazole
From the text: (§1) The hydroxybenzindazole (compound 2) delayed (inhibited) the initiation of growth of selected unrelated bacteria when incorporated in the growth medium. The inhibition was dependent on the concentration of the test compound and the nature of the organism. […] Pseudomonas fluorescens NND was not sensitive to the hydroxybenzindazole in the concentrations tested.

[5] = system: rat testis tubules; test: glucose oxidation (glucose-U-14C) by rat testis tubules in vitro; format: cell-based
Procedure: (§2) For these investigations the compounds were diluted in a minimal amount of ethanol and further diluted in saline (0.85%) so that the final concentration was 1 mg/ml. The compounds were placed in solution and gassed under N2 and stored at 5° C until used 2 days later for the in vitro incubation studies. Details of the in vitro incubation procedures may be found in Endocrinology 89:791-800 (1971).
The effects of these compounds on glucose oxidation by testis tubules was examined by incubating about 200 mg of teased testis tubules from mature rats in a 25 ml Erlenmeyer flask containing 3 ml of Krebs Ringer bicarbonate buffer (pH 7.4), D-glucose-U-^14 C (0.5 μCi; 10mM) and 0.25 ml of the azasteroid (1 mg/ml) to be tested. The flasks were incubated for 2 hours at 33° C under 95% O2 :5% CO2. The reaction was terminated by adding 0.25 ml of 5 N H2 SO4. Carbon dioxide was trapped in 0.25 ml of hydroxide of Hyamine. The radioactivity present in the Hyamine was determined by liquid scintillation spectrometry. This table includes a detailed summary of the results obtained and an average for each compound. […] Thus, the compounds have potential for antifertility activity in the control of wild rodent populations and possibly stray animals such as dogs and cats.
CPM = counts per minute. Glucose-U-^14 C activity was 0.5 millicurie.
All compounds were tested in a concentration of 250 mg per flask.

[6] = system: rat testis tubules; test: lysine-U-14C incorporation into protein by rat testis tubules in vitro; format: cell-based
Procedure: as §2
The effects of the compounds on the incorporation of lysine -U-^14 C into trichloroacetic (TCA) precipitable protein of rat testes was investigated by incubating about 200 mg of teased testis tubules from mature rats in a 25 ml Erlenmeyer flask containing 3 ml of Krebs Ringer bicarbonate buffer (pH 7.4), L-lysine-U-^14 C (0.5 μCi; 0.1mM), glucose (10 mM) and 0.25 ml of the azasteroid to be tested. The flasks were incubated for 1 hour at 33° C under 95% O2 : 5% CO2 and the TCA precipitable protein was isolated and an aliquot used to measure radioactivity.
CPM = counts per minute. All compounds were tested in a concentration of […]

[7] = system: Bacillus subtilis W23; test: inhibition of growth of Bacillus subtilis W23 in growth medium; format: cell-based
Procedure: as §1
The influence of cell mass on the antimicrobial potential of the hydroxybenzindazole was determined using B. subtilis W23. […] Thus, a critical number of molecules must react with the cell to produce inhibition. Experiments were conducted to determine if Mg^+^+, which is an important component of cell membranes, affected the inhibition. Cells of B. subtilis W23 were exposed to 10^-^3 M MgCl2 simultaneously with the test compound or for as long as 15 minutes prior to addition of the hydroxybenzindazole.

[8] = system: cells; test: binding or adsorption to the cell; conditions: incubated with 20 μg
From the text: (§3) Thus the compound can be used to destroy undesirable cells without damaging normal cells.

[9] = system: B. subtilis W23; test: antimicrobial activity in combination with selected antibiotics; format: cell-based
Procedure: Several antibiotics act at the cell surface. The antimicrobial activity of the hydroxybenzindazole in combination with selected antibiotics was measured.
Both Polymyxin (Pfizer, Inc.) and Circulin (Upjohn Co.) are surface active compounds thought to cause disorganization of the cell membrane leading to a loss of intracellular components. The enhanced antimicrobial activity observed with the combination of hydroxybenzindazole and antibiotics denotes a more pronounced distortion in the cell surface. Thus, much lower concentrations of the compounds can be used in medicinal applications providing an opportunity for toxic compounds to have greater medicinal applicability and use.
Failure of the mixture of hydroxybenzindazole and chloramphenicol to show an enhanced inhibition of growth could be correlated with the internal site of action of chloramphenicol, which is blockage of the binding of the 30s and 50s ribosomal subunits.

[10] = system: P. fluorescens NND; test: lysis of cells of P. fluorescens NND; format: cell-based, Pseudomonas fluorescens NND
Procedure: The increased lytic rate was not observed when the benzindazole was added after the cells had reached the maximum stationary phase (10 hours); thus, the compounds must be present during active growth for the cells to show the lytic response. […] This is extremely important in controlling or destroying growth of undesirable cells since if the cells rupture they cannot possibly grow and divide at any future time.

[11] = system: osmoplasts (osmotically sensitive cells) of B. subtilis W23; test: lysis of osmoplasts of B. subtilis W23; format: cell-based; conditions: stabilized in 0.35 M sucrose
From the text: as §3

[12] = system: Escherichia coli B; test: inhibition of initiation of growth of Escherichia coli B; format: cell-based; conditions: E. coli B
From the text: as §1

[13] = system: cells; test: uptake or incorporation of L-serine-3-14C or uracil-2-14C; format: cell-based; conditions: 60 μg/ml
From the text: as §3

[14] = effects on testis function: body, testis and seminal vesicle weight; format: in vivo, mice (ICR-Swiss adult male); conditions: average; 0.2 mg per day s.c., 10 days
Procedure: The compounds as shown in Table 7 were dissolved in a minimal amount of ethanol and diluted in sesame oil (1 mg/ml). After dilution, samples were stored at 5° C in the dark and flushed with N2 every 24 hours. The compounds were injected subcutaneously into adult male mice for a period of 10 days. Each mouse injected received a total dose of 2 mg over the 10 day period or 0.2 mg per day. The mice were random bred males of the ICR-Swiss strain and were used in the study when they reached 75±2 days of age. Mice were maintained in air-conditioned and light-controlled (14 hour light/24 hour) animal quarters and provided with lab food and water ad libitum. Animals were necropsied 24 hours after the last injection. Testes and seminal vesicles were excised, trimmed of adhering tissue and weighed fresh at the nearest one-tenth milligram.

[15] = cited from earlier work; remark: listed apart in the source
[16] = individual flask, 250 mg per flask (so in the source), 2 hours, 33° C
[17] = individual flask, 250 mg per flask (so in the source), 1 hour, 33° C

## COc1ccc2c(c1)CC[C@@H]1[C@@H]2CC[C@]2(C)C(=O)NC[C@@H]12 [0-methyl ether of 16-azaestrone]
[1]
  estrogenic activity relative to parent estrone: less than 1.01%

## CC(C)CCC[C@@H](C)[C@H]1CC[C@H]2[C@@H]3CC=C4N(CC[N+](C)(C)C)C(=O)CC[C@]4(C)[C@H]3CC[C@]12C [4-Dimethylaminoethyl-4-aza-5-cholesten-3-one methiodide]
[2]
  concentration that irreversibly inhibits growth of Bacillus subtilis cultures: 1 µg/mL

## C[C@]12Cc3cn[nH]c3C[C@@H]1CC[C@@H]1[C@@H]2CC[C@@]2(C)[C@H]1CC[C@]2(C)O [17-Hydroxy-17 α-methylandrostano[3,2]-μ pyrazole]
[3]
  antiovulatory activity relative to norethisterone: one-fifth of that observed for norethisterone

## Oc1ccc2c(c1)CCc1cn[nH]c1-2 [Compound 2, 4,5-Dihydro-1H-benz[g]indazol-7-ol]
[4]
  sensitivity / influence on growth: not sensitive; also recorded: did not influence the growth
[5]; average of flasks
  AVERAGE glucose oxidation: 3,756 CPM/100 mg TISSUE
[5]; in words
  depression of glucose oxidation in vitro: depressed glucose oxidation in vitro more than compounds 4 c and 11b
[5]; [16]
  GLUCOSE OXIDATION per 100 mg: 3,354 CPM/100 mg and 4,159 CPM/100 mg
  GLUCOSE OXIDATION per flask: 6,876 CPM/FLASK and 8,557 CPM/FLASK
[5]; versus saline, 120 min
  % DEVIATION FROM CONTROL, glucose oxidation: -63.6%
[6]; average of two flasks
  AVERAGE OF TWO FLASK lysine incorporation: 814 CPM/100 mg tissue
[6]; in words
  protein synthesis by teased testis tubules: depress protein synthesis
[6]; [17]
  lysine incorporation into protein per 100 mg: 1,000 CPM/100 mg and 629 CPM/100 mg
  lysine incorporation into protein per flask: 2,000 CPM/FLASK and 1,200 CPM/FLASK
[7]; 46 μg/ml, B. subtilis W23
  growth inhibition at lower concentration: only slight inhibition
[7]; 86 μg/ml, B. subtilis W23
  increased lag in the initiation of growth: approximately 3 hours
[7]; 10^-3 M MgCl2, simultaneously or up to 15 minutes prior
  influence of Mg++ on the inhibition: did not influence the inhibition
[7]; B. subtilis W23, increasing inoculum cell mass
  influence of cell mass on extent of inhibition: the extent of inhibition was diminished as the cell mass of the inoculum was increased
[8]
  amount bound or adsorbed to the cell: approximately 1 μg
[9]; alone, B. subtilis W23
  inhibition of growth, tested separately: very slight inhibition of growth
[9]; with chloramphenicol
  enhanced inhibition in combination with chloramphenicol: enhanced inhibition was not observed
[9]; with penicillin, B. subtilis W23
  inhibition of growth in combination with penicillin: pronounced inhibition
[10]; P. fluorescens NND
  dependence of extent of lysis on concentration: proportional to the benzindazole concentration
[10]; added after 10 hours
  increased lytic rate when added after maximum stationary phase: not observed
[10]; cells grown in presence of compound
  cell population lysed: approximately 95%
[11]
  lysis of osmoplasts: did not produce lysis
[12]; 46 μg/ml
  growth inhibition at lower concentration: only slight inhibition
[12]; 86 μg/ml
  increased lag in the initiation of growth: approximately 3 hours
[13]
  inhibition of uptake or incorporation of L-serine-3-14C or uracil-2-14C: did not inhibit uptake or incorporation
[14]
  Body Weight: 35.7 g
  Mg Testes Per g Body Wt.: 6.73 Mg per g
  Seminal Vesicle weight: 87.3 mg
  Testes Paired weight: 242.0 mg

## (3,2-c)-2'-phenylpyrazole of 9α-fluoro-6,16α-dimethyl-Δ^6 -hydrocortisone
[15]
  anti-inflammatory potency relative to hydrocortisone: over 2000 times
